Test results as given in PubChem BioAssay (NCI).
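Step 1: Grow cells in 96-well plates. Step 2: Expose to compound for 48 hours at 5 concentrations. Step 3: Interpolate endpoints linearly; if unreached, use highest concentration. GI50: concentration for 50% inhibition of growth. The concentration for full growth arrest is given as TGI.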

Key:
Assay in all cases: inhibition of tumour cell growth, NCI panel, 48 h
[1] = system: IGROV1 ovarian
[2] = system: NCI-H460 lung
[3] = system: SF-268 CNS
[4] = system: CCRF-CEM leukemia
[5] = system: SW-620 colon
[6] = system: MCF7 breast
[7] = system: SF-295 CNS
[8] = system: SK-MEL-28 melanoma
[9] = system: ACHN renal
[10] = system: PC-3 prostate

Row | SMILES | TGI [1] | TGI [2] | TGI [3] | TGI [4] | TGI [5] | TGI [6] | TGI [7] | TGI [8] | TGI [9] | TGI [10] | GI50 [1] | GI50 [2] | GI50 [5] | GI50 [7] | GI50 [8]
1 | CCOC(=O)NC(=O)c1cn(CCN(CCO)C(=O)NCCCCCCNC(=O)N(CCO)CCn2cc(C(=O)NC(=O)OCC)c(=O)[nH]c2=O)c(=O)[nH]c1=O | > 100 µM | > 100 µM | > 100 µM | > 100 µM | > 100 µM | > 100 µM | > 100 µM | > 100 µM |  |  |  |  |  |  | 
2 | CCCC[n+]1ccn(-c2nc3ccccc3n2C)c1 | > 100 µM | > 100 µM |  | > 100 µM | > 100 µM |  | > 100 µM |  | > 100 µM |  |  |  |  |  | 
3 | COc1nc2ccc(Cl)c(C(O)c3ccccc3)c2nc1OC (stereo unspecified) | > 100 µM | > 100 µM | 84.5 µM | 29.5 µM | 82.7 µM | 87.6 µM | 44.8 µM | > 100 µM | > 100 µM | > 100 µM |  |  |  |  | 
4 | COC(Cc1cc(C(O)(c2ccc(C(C)(C)C)cc2)c2cc(CC(OC)(c3cc(C(OC)(c4ccc(C(C)(C)C)cc4)c4ccc(C(C)(C)C)cc4)c(C)cc3C)c3cc(C(OC)(c4ccc(C(C)(C)C)cc4)c4ccc(C(C)(C)C)cc4)c(C)cc3C)c(C)cc2C)c(C)cc1C)(c1cc(C(OC)(c2ccc(C(C)(C)C)cc2)c2ccc(C(C)(C)C)cc2)c(C)cc1C)c1cc(C(OC)(c2ccc(C(C)(C)C)cc2)c2ccc(C(C)(C)C)cc2)c(C)cc1C | > 75 µM | > 75 µM | > 75 µM | > 75 µM | > 75 µM | > 75 µM | > 75 µM | > 75 µM |  | > 75 µM |  |  |  |  | 
5 | N/C(=C\c1ccc(/C=C(\NC(=O)c2ccccc2)c2nc3c([nH]2)C(=O)c2ccccc2C3=O)cc1)c1nc2c([nH]1)C(=O)c1ccccc1C2=O | 40.3 µM | 36.4 µM | 30.6 µM | 57.2 µM | 50.5 µM |  | 30.9 µM | 31.3 µM | 52.6 µM |  |  |  |  |  | 
6 | N#C[S-].[Ce+3].c1ccc(-c2ccccn2)nc1.c1ccc(-c2ccccn2)nc1.c1ccc(-c2ccccn2)nc1 | 69 µM | > 100 µM |  |  | > 100 µM |  | 49 µM | > 100 µM |  |  | 24.5 µM | 13.1 µM | 38.9 µM | 4.72 µM | 15.3 µM
